Reference: patent US8987193B2, “Nisin derivatives and the use thereof” (University College Cork—National University of Ireland, Cork, priority 2008, dated 2015)
“Also recorded” adds a separate entry of the source. Ends that are not written are not given here.

What was measured:
L. monocytogenes CBC1 = assay: Deferred antagonism assay; type: cell-based, Listeria monocytogenes; set-up: key: + = Enhanced bioactivity relative to control; − = Bioactivity equal to or less than control; NA = no activity evident; conditions: L. mono CBC1; XX and XXX hinge mutant producers
Method: (§1) Deferred antagonism assays were performed by replicating strains on GM17 or GM17 x-gal agar plates and allowing them to grow overnight before overlaying with either GM17/BHI/TS/MH agar (0.75% w/v agar) seeded with the appropriate indicator strain. Zone size was calculated as the diameter of the zone of clearing minus the diameter of bacterial growth (5 mm) For higher throughput screening of N20PXX, XM21VX, XXK22T and XXX banks deferred antagonism assays were performed by replicating strains using a 96 pin replicator (Boekel) or spotting 5 μl of a fresh overnight culture on GM17 agar plates and allowing them to grow overnight. […] Additional sets of indicators were employed to further assess/reassess the bioactivity of a number of strains. […] For well-diffusion assays molten agar was cooled to 48° C. and seeded with the appropriate indicator strain. The inoculated medium was rapidly transferred into sterile Petri plates in 50 ml volumes, allowed to solidify and dried. Wells (4.6 mm in diameter) were then made in the seeded plates. Purified nisin and mutant nisins were resuspended in 0.005% acetic acid, serially diluted, 50 μl volumes were dispensed into the aforementioned wells and the plates incubated at 37° C. overnight. Bioactivity was expressed as arbitrary units/ml (AU/ml) and calculated as the reciprocal of the highest dilution that gave a definite zone multiplied by the conversion factor (i.e. 20 when 50 μl was used) (Ryan et al., 1996).
(§2) As a consequence of the enhanced activities of K22T and K22S, a more in-depth investigation of this region was carried out. Saturation mutagenesis was undertaken to create a bank of nisin A hinge derivatives containing the vast majority of possible amino acid substitutions for each position. Although pPTPL was used successfully for random mutagenesis, its relatively large size of approx 10.5 kb was considered unsuitable for the complete plasmid PCR amplification approach utilized for saturation mutagenesis. A smaller (approx 6 kb) E. coli-L. lactis shuttle vector pCI372 was considered to be potentially more useful. Its suitability with respect to the in trans expression of nisA was confirmed by the ability of pDFO5 to restore the nisin positive phenotype. Saturation mutagenesis was performed on each codon using pDF05 and oligonucleotides (Table 5) that replace the specific codon with a NNK triplet, potentially encoding all 20 standard amino acids. Following complete plasmid amplification and introduction into the intermediate Top10 host, sequence analysis of a pooled bank of pDF05 derivatives confirmed randomization. Introduction of these variants into L. lactis NZ9800 allowed the expression of mutant nisin A peptides for further analysis. […] 46 residue conversions were isolated. All strains, regardless of bioactivity, were assessed with a view to comprehensively assessing the consequences of each individual hinge alteration.

L. monocytogenes CBC2 = assay: Deferred antagonism assay; type: cell-based, Listeria monocytogenes; set-up: key: + = Enhanced bioactivity relative to control; − = Bioactivity equal to or less than control; NA = no activity evident; conditions: L. mono CBC2; XX and XXX hinge mutant producers
Method: as §1, §2

L. monocytogenes CBC3 = assay: Deferred antagonism assay; type: cell-based, Listeria monocytogenes; set-up: key: + = Enhanced bioactivity relative to control; − = Bioactivity equal to or less than control; NA = no activity evident; conditions: L. mono CBC3; XX and XXX hinge mutant producers
Method: as §1, §2

L. lactis CBC7 = assay: Deferred antagonism assay; type: cell-based; set-up: key: + = Enhanced bioactivity relative to control; − = Bioactivity equal to or less than control; NA = no activity evident; conditions: XX and XXX hinge mutant producers
Method: as §1, §2

L. lactis CBC8 = assay: Deferred antagonism assay; type: cell-based; set-up: key: + = Enhanced bioactivity relative to control; − = Bioactivity equal to or less than control; NA = no activity evident; conditions: XX and XXX hinge mutant producers
Method: as §1, §2

S. aureus CBC4 = assay: Deferred antagonism assay; type: cell-based; set-up: key: + = Enhanced bioactivity relative to control; − = Bioactivity equal to or less than control; NA = no activity evident; conditions: XX and XXX hinge mutant producers
Method: as §1, §2

L. plantarum CBC6 = assay: Deferred antagonism assay; type: cell-based, Lactobacillus plantarum; set-up: key: + = Enhanced bioactivity relative to control; − = Bioactivity equal to or less than control; NA = no activity evident; conditions: XX and XXX hinge mutant producers
Method: as §1, §2

indicator strains = assay: Deferred antagonism assays, various indicator strains (summary); type: cell-based; conditions: for Target strain against which the hinge mutant was selected for enhanced bioactivity: XX and XXX banks, L. lactis HP*: enhanced or equal; for Target strain against which the hinge mutant was selected for enhanced bioactivity / Strain(s) against which the derivative (producing strain) displays enhanced bioactivity: relative to nisin A-producing control; for number of targets with enhanced activity: of the 8 additional targets tested; for Strain(s) against which the derivative (producing strain) displays enhanced bioactivity: value = strains listed
Method: as §1

Substance | bioactivity relative to a nisin A-producing control (L. monocytogenes CBC1) | bioactivity relative to a nisin A-producing control (L. monocytogenes CBC2) | bioactivity relative to a nisin A-producing control (L. monocytogenes CBC3) | bioactivity relative to a nisin A-producing control (L. lactis CBC7) | bioactivity relative to a nisin A-producing control (L. lactis CBC8) | bioactivity relative to a nisin A-producing control (S. aureus CBC4) | bioactivity relative to a nisin A-producing control (L. plantarum CBC6) | Target strain against which the hinge mutant was selected for enhanced bioactivity (indicator strains) | number of targets with enhanced activity (indicator strains) | Strain(s) against which the derivative (producing strain) displays enhanced bioactivity (indicator strains)
NisinA GLA (ITSISLCTPGCKTGALMGCGLATATCHCSIHVSK; cysteine pairing not given here; also: lantibiotic nisin-A; UniProt P13068 24-57, looked up, variant N20G M21L K22A) [nisin A hinge variant GLA (i.e. N20G, M21L, K22A)] | − | − | − | − | − | − | − | B. cereus UCC1 | 1 | B. cereus UCC1
NisinA GVK | − | − | + | + | − | + | − | C. sporogenes UCC1 | 3 | C. sporogenes UCC1, L. monocytogenes CBC3, S. aureus CBC4 and L. lactis CBC7 and C. sporogenes UCC1, L. mono CBC3, S. aureus CBC4, L. lactis and CBC7
NisinA HLT (ITSISLCTPGCKTGALMGCHLTTATCHCSIHVSK; cysteine pairing not given here; also: lantibiotic nisin-A; UniProt P13068 24-57, looked up, variant N20H M21L K22T) [nisin A hinge variant HLT (i.e. N20H, M21L, K22T)] | − | + | + | + | − | + | − | Strep. agalactiae ATCC 13813 | 4 | S. agalactiae ATCC13813, L. monocytogenes CBC2 and CBC3, S. aureus CBC4 and L. lactis CBC7; also recorded: S. agalactiae ATCC13813, L. mono CBC2, CBC3, S. aureus
NisinA PAQ (ITSISLCTPGCKTGALMGCPAQTATCHCSIHVSK; not fully specified (bridges); also: lantibiotic nisin-A: lanthionine rings and dehydrated residues, places not given here; UniProt P13068 24-57, looked up, variant N20P M21A K22Q) [nisin A hinge variant PAQ (i.e. N20P, M21A, K22Q)] |  |  |  |  |  |  |  | L. lactis HP* | 3 | S. agalactiae ATCC13813 and strain B and S. aureus NCDO1499
NisinA PGA (ITSISLCTPGCKTGALMGCPGATATCHCSIHVSK; not fully specified (bridges); also: lantibiotic nisin-A: lanthionine rings and dehydrated residues, places not given here; UniProt P13068 24-57, looked up, variant N20P M21G K22A) [nisin A hinge variant PGA (i.e. N20P, M21G, K22A)] |  |  |  |  |  |  |  | L. lactis HP* | 3 | S. agalactiae ATCC13813 and strain B and S. aureus NCDO1499
NisinA PHT (ITSISLCTPGCKTGALMGCPHTTATCHCSIHVSK; not fully specified (bridges); also: lantibiotic nisin-A: lanthionine rings and dehydrated residues, places not given here; UniProt P13068 24-57, looked up, variant N20P M21H K22T) [nisin A hinge variant PHT (i.e. N20P, M21H, K22T)] |  |  |  |  |  |  |  | Strep. agalactiae ATCC 13813 | 3 | Strep. agalactiae ATCC 13813 and Strain B, and L. lactis MG1363; also recorded: Strep. agalactiae ATCC 13813, L. lactis MG1363, S. agalactiae
NisinA PIH (ITSISLCTPGCKTGALMGCPIHTATCHCSIHVSK; not fully specified (bridges); also: lantibiotic nisin-A: lanthionine rings and dehydrated residues, places not given here; UniProt P13068 24-57, looked up, variant N20P M21I K22H) [nisin A hinge variant PIH (i.e. N20P, M21I, K22H)] |  |  |  |  |  |  |  | L. lactis HP* | 1 | S. agalactiae Strain B
NisinA PIT (ITSISLCTPGCKTGALMGCPITTATCHCSIHVSK; not fully specified (bridges); also: lantibiotic nisin-A: lanthionine rings and dehydrated residues, places not given here; UniProt P13068 24-57, looked up, variant N20P M21I K22T) [nisin A hinge variant PIT (i.e. N20P, M21I, K22T)] |  |  |  |  |  |  |  | L. lactis HP* | 3 | S. agalactiae ATCC13813 and strain B and S. aureus NCDO1499
NisinA PIV (ITSISLCTPGCKTGALMGCPIVTATCHCSIHVSK; not fully specified (bridges); also: lantibiotic nisin-A: lanthionine rings and dehydrated residues, places not given here; UniProt P13068 24-57, looked up, variant N20P M21I K22V) [nisin A hinge variant PIV (i.e. N20P, M21I, K22V)] |  |  |  |  |  |  |  | L. lactis HP* | 3 | S. agalactiae ATCC13813 and strain B and S. aureus NCDO1499
NisinA PMA |  |  |  |  |  |  |  | Strep. agalactiae ATCC 13813 | 1 | Strep. agalactiae ATCC 13813 and S. aureus DPC5246
PHM: nisin A hinge variant PHM (i.e. N20P, M21H, K22M) (ITSISLCTPGCKTGALMGCPHMTATCHCSIHVSK; not fully specified (bridges); also: lantibiotic nisin-A: lanthionine rings and dehydrated residues, places not given here; UniProt P13068 24-57, looked up, variant N20P M21H K22M) |  |  |  |  |  |  |  | Strep. agalactiae ATCC 13813 | 2 | Strep. agalactiae ATCC 13813 and Strain B; also recorded: Strep. agalactiae ATCC 13813, S. agalactiae Strain B
